Measured values reported in US12305185B2, “Expression vector and method” (MOUNT SPEC I[…] LTD, priority 2018, dated 2025).

Test system: aRPE-19 human retinal pigmented epithelial cell line
Assay: Activation and deactivation of vector constructs containing luciferase (Nano-Glo luminescence assay)
Assay type: cell-based
Conditions: luminescence on day 7
Experimental: ARPE-19 cells were seeded as described above. 12-24 hours later, cells were transfected with pAAV-LTetL-luc and pAAV-LCuL-luc. Media was replaced the next day and doxycycline or cumate was added to a subset of cells (FIG. 7). The media from the cells were assayed for the expression of marker gene, luciferase, using the Nano-Glo Luciferase assay on day 4 after having a media change on day 3. The Nano-Glow luciferase assay was performed as described above.
Following the luciferase assay, media was changed in all the wells. A subset of cells activated with doxycycline and cumate were washed to deactivate the vector.
A human retinal pigmented epithelial cell line (aRPE-19) was transfected with vector constructs containing Tet or Cu regulatory sequences driving the expression of the marker gene luciferase. Twenty-four hours later, the cells were treated with or without Tet or Cu and incubated for a further 48 hours before assessing the expression of luciferase. The ability of the system to stop expression of the transgene (Luciferase) was examined by removing the Tet or Cu from the cells by washing prior to re-examining Luciferase expression. Cells without Tet or Cu were used as a control as were cells where Tet or Cu was not removed.

Q: Which “luciferase expression on addition of regulator compound” value (aRPE-19 cells transfected with Tet or Cu regulated luciferase vector) does the source give for CC(C)c1ccc(C(=O)O)cc1 [Cu, cumate] here?
A: Its value is “able to induce significant levels of luciferase expression”.

Q: And the “luciferase expression after removal of regulator compound by washing” value (aRPE-19 cells, 3 days of washes)?
A: Its value is “significantly less luciferase being detected”.
